# Source: patent publication US5663186A, “Treatment of atherosclerosis with angiotensin II receptor blocking imidazoles” (Merck & Co., Inc., priority 1995, dated 1997)
# How the values were obtained:
# [1] = tested on: patients with mild to moderate hypertension; assay: Clinical study: sitting diastolic blood pressure; format: in vivo; details: for Peak Sitting Diastolic Blood Pressure, Mean (on treatment) / Mean Change in Peak Sitting Diastolic Blood Pressure / Change in Peak Sitting Diastolic Blood Pressure, adj. mean: peak (6 hours postdose); for Trough Sitting Diastolic Blood Pressure, Mean (on treatment) / Mean Change in Trough Sitting Diastolic Blood Pressure / Change in Trough Sitting Diastolic Blood Pressure, adj. mean: trough (24 hours postdose)
# Experimental: Sitting Diastolic Blood Pressure Results At Week 6 and 12
# The changes from baseline blood pressure (primary=trough sitting diastolic blod pressure at weeks 6 and 12) were evaluated using a least squares analysis of the means based upon an analysis of covariance (covariate=baseline blood pressure)for a randomized block (block=investigator site) design. An "all-patients-treated" and a "per-protocol" analysis were performed. The study was designed to detect a 5 mmHg difference in mean change between treatments with 95% probability based upon a group size of 86 with an α of 0.05 (two-sided) and a standard deviation of 9 mmHg.
# [2] = tested on: patients with mild to moderate hypertension; assay: Clinical study: plasma renin activity; format: in vivo
# Experimental: After six weeks the non-responders were titrated to a 100 mg oral dose administered once daily.
# [3] = tested on: patients with mild to moderate hypertension; assay: Clinical study: HDL cholesterol; format: in vivo
# Experimental: (§1) The total, HDL, LDL and VLDL cholesterol levels were measured using the procedures described below:
# High Density Lipoprotein Cholesterol
# The high density lipoprotein (HDL) cholesterol was measured by analyzing a 2.0 mL volume of non-hemolyzed serum or EDTA plasma(heparinized plasma is not recommended), which has been separated from the cells within 30 minutes of collection. A fasting specimen of at least 12 hours is required for accurate interpretation. In most persons, the plasma cholesterol level is affected very little by a recent meal. However, in some persons an increase of up to 100 mg/dL may be induced by a recent meal. The level of cholesterol in plasma is slightly lower than serum (approximately 3%) due to the fact that the liquid EDTA dilutes the plasma slightly and it somotically draws water out of the erythrocytes.
# The method used for in this procedure utilizes the precipitating properties of phosphotungstate. Addition of the HDL precipitating reagent lowers the pH of the sample to the isoelectric point for the LDL and VLDL. LDL and VLDL molecules at pH 5.7 have overall electrical neutrality.
# Phosphotungstate then selectively forms insoluble ligand complexes with LDL and VLDL. Differences in ionic strength forcefully precipitate these complexes. Centrifugation removes them, leaving the HDL fraction in the supernatant. The resulting supernatant cholesterol (HDL) is then assayed for cholesterol. Cholesterol esters in the sample are hydrolyzed by cholesterol esterase to cholesterol and free fatty acids. The cholesterol produced in the reaction plus the free cholesterol present in the sample, are oxidized by cholesterol oxidase to form cholesten-3-one and hydrogen peroxide. Peroxidase catalyzes the hydrogen peroxide oxidation and 4-aminoantipyrine (4-AAP) and phenol with subsequent coupling to 3,4-dichlorophenol.
# The end product is a quinoneimine dye which is read at a primary wavelength of 520 nm. The color formation is proportional to the concentration of cholesterol present. This absorbance value is then compared to the absorbance by a known calibrator. The result is then printed out directly in mg/dL.
# Renal Hypertensives Rats = assay: Antihypertensive effects in renal hypertensive rats (left renal artery ligation); format: in vivo, rat
# Experimental: This procedure increases blood pressure by increasing renin production with consequent elevation of AII levels. Compounds are administered orally at 100 mg/kg and/or intravenously via a cannula in the jugular vein at 10 mg/kg. Arterial blood pressure is continuously measured directly through a carotid artery cannula and recorded using a pressure transducer and a polygraph. Blood pressure levels after treatment are compared to pretreatment levels to determine the antihypertensive effects of the compounds (See Table 1).
# Compound listed in Table 2 was tested in the same manner as described for Table 1, except that in the test for antihypertensive effects in renal hypertensive rats, the compounds were administered orally at 30 mg/kg and intravenously at 3 mg/kg.
# [4] = tested on: patients with mild to moderate hypertension; assay: Clinical study: LDL cholesterol; format: in vivo
# Experimental: as §1
# The low density lipoprotein cholesterol is computed by subtracting from the cholesterol value determined above one-fifth of the triglycerides and the HDL cholesterol value determined above. This LDL computation is valid only if the triglyceride level is less than 400 mg/dL.
structure (smiles),measurement,setting,value
"CCCCc1nc(Cl)c(CO)n1Cc1ccc(-c2ccccc2-c2nnn[nH]2)cc1.[K] [Losartan, 2-n-butyl-4-chloro-1-[(2'-(tetrazol-5-yl)-1,1'-biphenyl-4-yl)-methyl]-1H-imidazole-5-methanol potassium salt]","Peak Sitting Diastolic Blood Pressure, Mean (on treatment)","[1]; 6 wk, 50/100 mg, N 111, all-patients-treated",90.3 mmHg
same,Mean Change in Peak Sitting Diastolic Blood Pressure,"[1]; 6 wk, 50/100 mg, N 111, baseline 99.1",-8.9 mmHg
same,"Change in Peak Sitting Diastolic Blood Pressure, adj. mean","[1]; 6 wk, 50/100 mg, N 111, least squares",-9.0 mmHg
same,"Peak Sitting Diastolic Blood Pressure, Mean (on treatment)","[1]; 12 wk, 50 mg, N 121, all-patients-treated",90.3 mmHg
same,Mean Change in Peak Sitting Diastolic Blood Pressure,"[1]; 12 wk, 50 mg, N 121, baseline 99.8",-9.5 mmHg
same,"Change in Peak Sitting Diastolic Blood Pressure, adj. mean","[1]; 12 wk, 50 mg, N 121, least squares",-9.3 mmHg
same,"Peak Sitting Diastolic Blood Pressure, Mean (on treatment)","[1]; 12 wk, 50/100 mg, N 113, all-patients-treated",89.1 mmHg
same,Mean Change in Peak Sitting Diastolic Blood Pressure,"[1]; 12 wk, 50/100 mg, N 113, baseline 99.2",-10.1 mmHg
same,"Change in Peak Sitting Diastolic Blood Pressure, adj. mean","[1]; 12 wk, 50/100 mg, N 113, least squares",-10.1 mmHg
same,"Trough Sitting Diastolic Blood Pressure, Mean (on treatment)","[1]; 6 wk, 50 mg, N 125, all-patients-treated",95.3 mmHg
same,Mean Change in Trough Sitting Diastolic Blood Pressure,"[1]; 6 wk, 50 mg, N 125, baseline 102.1",-6.9 mmHg
same,"Change in Trough Sitting Diastolic Blood Pressure, adj. mean","[1]; 6 wk, 50 mg, N 125, least squares",-6.9 mmHg
same,"Trough Sitting Diastolic Blood Pressure, Mean (on treatment)","[1]; 6 wk, 50/100 mg, N 118, all-patients-treated",94.3 mmHg
same,Mean Change in Trough Sitting Diastolic Blood Pressure,"[1]; 6 wk, 50/100 mg, N 118, baseline 102.2",-7.9 mmHg
same,"Change in Trough Sitting Diastolic Blood Pressure, adj. mean","[1]; 6 wk, 50/100 mg, N 118, least squares",-7.9 mmHg
same,"Trough Sitting Diastolic Blood Pressure, Mean (on treatment)","[1]; 12 wk, 50 mg, N 125, all-patients-treated",94.2 mmHg
same,Mean Change in Trough Sitting Diastolic Blood Pressure,"[1]; 12 wk, 50 mg, N 125, baseline 102.1",-7.9 mmHg
same,"Change in Trough Sitting Diastolic Blood Pressure, adj. mean","[1]; 12 wk, 50 mg, N 125, least squares",-7.9 mmHg
same,"Trough Sitting Diastolic Blood Pressure, Mean (on treatment)","[1]; 12 wk, 50/100 mg, N 118, all-patients-treated",93.6 mmHg
same,Mean Change in Trough Sitting Diastolic Blood Pressure,"[1]; 12 wk, 50/100 mg, N 118, baseline 102.2",-8.6 mmHg
same,"Change in Trough Sitting Diastolic Blood Pressure, adj. mean","[1]; 12 wk, 50/100 mg, N 118, least squares",-8.6 mmHg
same,"PLASMA RENIN ACTIVITY, TREATMENT MEAN","[2]; LOS 50, week 12, N 99",2.889 ng/mL/h
same,"PLASMA RENIN ACTIVITY, CHANGE MEAN","[2]; LOS 50, week 12, N 99, change from baseline 1.300",1.589 ng/mL/h
same,"PLASMA RENIN ACTIVITY, TREATMENT MEAN","[2]; LOS 50/100, week 12, N 96",3.724 ng/mL/h
same,"PLASMA RENIN ACTIVITY, CHANGE MEAN","[2]; LOS 50/100, week 12, N 96, change from baseline 1.473",2.251 ng/mL/h
same,"HDL CHOLESTEROL, TREATMENT MEAN","[3]; LOS 50, week 12, N 107",52.1 mg/dL
same,"HDL CHOLESTEROL, CHANGE MEAN","[3]; LOS 50, week 12, N 107, change from baseline 52.5",-0.4 mg/dL
same,"HDL CHOLESTEROL, TREATMENT MEAN","[3]; LOS 50/100, week 12, N 106",52.3 mg/dL
same,"HDL CHOLESTEROL, CHANGE MEAN","[3]; LOS 50/100, week 12, N 106, change from baseline 52.9",-0.5 mg/dL
same,"Antihypertensive Effects in Renal Hypertensives Rats, Intravenous Activity","Renal Hypertensives Rats; intravenous, 10 mg/kg or less",+ (Significant decrease in blood pressure at 10 mg/kg or less)
same,"Antihypertensive Effects in Renal Hypertensives Rats, Oral Activity","Renal Hypertensives Rats; oral, 100 mg/kg or less",+ (Significant decrease in blood pressure at 100 mg/kg or less)
same,"LDL CHOLESTEROL, TREATMENT MEAN","[4]; LOS 50, week 12, N 102",123.5 mg/dL
same,"LDL CHOLESTEROL, CHANGE MEAN","[4]; LOS 50, week 12, N 102, change from baseline 127.7",-4.2 mg/dL
same,"LDL CHOLESTEROL, TREATMENT MEAN","[4]; LOS 50/100, week 12, N 95",117.9 mg/dL
same,"LDL CHOLESTEROL, CHANGE MEAN","[4]; LOS 50/100, week 12, N 95, change from baseline 126.3",-8.4 mg/dL
